Here are results for one compound from patent publication US20190224343A1, “CLEAVABLE COATING MATERIAL HAVING MICROBIAL FUNCTIONALITY” (ORIGINAL G B.V., priority 2012, published 2019).

Molecules are shown by their SMILES.

The experiment relates to Staphylococcus aureus (clinical isolate). As to the kind of experiment: Fluorescence imaging of coated orthopaedic plates, screws and catheters implanted in a human cadaver ankle after incubation with S. aureus isolate or NaCl. The settings on record: implants incubated with S. aureus, imaged 24 hours after implantation, excitation 710 nm, emission 800 nm. The text has this:
Orthopaedic plates, screws and catheters were coated with the polymer coating with compositions according to step (g). For example a polymer coating 1 g (i) was coated onto orthopaedic plates, screws and catheters in a continuous process.
First a solution of the polymer prepared in Example 1 g (i) was made by dissolving the polymer coating in water and then the plate and catheter were drawn through the solution of the polymer coating at a rate of 1 to 2 meters/second into an infrared dying oven of approximately 1 meter in length at about 100° C. The objects were completely covered indicating the application of a substantially uniform coating. This process was done according to the standard procedures in U.S. Pat. No. 7,442,205, Stents and methods for preparing stents from wires having hydrogel coating layers thereon. […]
Imaging of the objects implanted according to example 6 was performed 24 hours after implantation using an intra-operative clinical multispectral fluorescence camera (T3-imaging system, SurgOptix BV, Groningen, The Netherlands) and the IVIS Spectrum (excitation: 710 nm, emission: 800 nm, acquisition time 5 s, binning 4, F-stop 2, FOV 21.2).
The results obtained from the IVIS Spectrum and IVIS Lumina II were analyzed with Living Image 4.2. […] Signal intensity was determined by drawing regions of interests (ROI's) and measuring average counts in these regions. […]

Take `CC1(C)C(=CC=C2CCCC(C=CC3=[N+](CCCCCC(=O)[O-])c4ccc(S(=O)(=O)[O-])cc4C3(C)C)=C2Oc2ccc(S(=O)(=O)[O-])cc2)N(CCCCS(=O)(=O)[O-])c2ccc(S(=O)(=O)[O-])cc21.[Na+].[Na+].[Na+].[Na+]` [IRDye 800CW]: the “near infrared signal (net counts, background corrected)” value was 1×10^5±4.2×10^4 counts.
